For one data set, the system named is AMPK and SIRT1. Briefly: Immunoblotting of AMPK and SIRT1 in liver tissue of diabetic mouse model. The format is in vivo, C57BL/6 mice. The conditions noted are these: vs HFD mouse group. The protocol:
(§1) Total proteins were extracted with a RIPA lysis buffer system including phenylmethylsulfonyl fluoride (PMSF), sodium orthovanadate (Na3VO4) and protease inhibitor cocktail (Santa Cruz Biotechnology) at 4° C. for 30 minutes, and the extracted sample was centrifuged at 16,000×g for 20 minutes. The concentration of total proteins was quantified using a Pierce BCA Protein Assay Kit (Thermo Fisher Scientific). The proteins (30 to 50 μg) were loaded and separated through sodium dodecyl sulfate-polyacrylamide gel electrophoresis (SDS-PAGE), and then blotted with a PVDF membrane (GE Healthcare, Germany). In order to prevent nonspecific binding of the primary antibodies, the membrane was blocked with TBST including 1% non-fat dry milk for 1 hour and 30 minutes at room temperature (RT). Then, the membrane was incubated overnight at 4° C. together with each primary antibody. The secondary antibodies were conjugated with horseradish peroxidase and visualized with an enhanced chemiluminescence detection kit (GE Healthcare). Analysis of density measurement was performed using Image J software.
(§2) 6-week-old male C57BL/6 mice (weight 22±2 g) were purchased from Samtako Bio Korea Co., Ltd. (Osan, Gyeonggi-do, Korea). The mice were maintained at 23 to 25° C. under a 12 h light-dark cycle with free access to food and water in a pathogen-free animal facility center. All animal experiments were approved in accordance with the Chosun University Institutional Animal Care and Use Committee (CIACUC2020-S0009). All animals were fed normal chow pellets (ND, SAM #31, Samtako, Inc.), and went through a period of adjustment for 1 week. During the following week, the animals were randomly classified according to the body weight, and one-third of the animals were classified as normal controls to be fed normal chow pellets throughout the study. On the other hand, the remaining animals were fed a high-fat diet (HFD; 60% Kcal energy as fat) (study diet; #D12492; New Brunswick, NJ 08901 USA) for 2 weeks in order to induce insulin resistance, and the diet was continued until the study ended. Then, STZ (30 mg/kg, i.p.) was administered to the animals for 5 consecutive days from the 4th week to induce T2DM therein. On the other hand, the normal control animals were administered the same volume of citrate buffer instead of the STZ. Blood glucose levels of the animals were measured at the end of week 5, and animals showing a fasting blood glucose level (FBG)≥200 mg/dl were selected for the study. […]
A general note: A western blot detects proteins with antibodies after separation by electrophoresis.

Data set [1] has as its system SREBP1, FASN, ChREB, CPT1a and CPT1b. Briefly: qRT-PCR of lipid production and β-oxidation genes in liver of diabetic mouse model. The format is in vivo, C57BL/6 mice. The conditions noted are these: CQ-L, 10 mg/kg/day i.p., vs HFD mouse group. The protocol:
(§3) 6-week-old male C57BL/6 mice (weight 22±2 g) were purchased from Samtako Bio Korea Co., Ltd. (Osan, Gyeonggi-do, Korea). The mice were maintained at 23 to 25° C. under a 12 h light-dark cycle with free access to food and water in a pathogen-free animal facility center. All animal experiments were approved in accordance with the Chosun University Institutional Animal Care and Use Committee (CIACUC2020-S0009). All animals were fed normal chow pellets (ND, SAM #31, Samtako, Inc.), and went through a period of adjustment for 1 week. During the following week, the animals were randomly classified according to the body weight, and one-third of the animals were classified as normal controls to be fed normal chow pellets throughout the study. On the other hand, the remaining animals were fed a high-fat diet (HFD; 60% Kcal energy as fat) (study diet; #D12492; New Brunswick, NJ 08901 USA) for 2 weeks in order to induce insulin resistance, and the diet was continued until the study ended. Then, STZ (30 mg/kg, i.p.) was administered to the animals for 5 consecutive days from the 4th week to induce T2DM therein. On the other hand, the normal control animals were administered the same volume of citrate buffer instead of the STZ. Blood glucose levels of the animals were measured at the end of week 5, and animals showing a fasting blood glucose level (FBG)≥200 mg/dl were selected for the study. Finally, the animals were divided into the following 4 groups; Group 1: saline-treated normal control mice (Control), Group 2: saline-treated diabetic control mice (HFD), Group 3: camphorquinone (10 mg/kg/day, i.p.)-treated diabetic mice (CQ-L), and Group 4: camphorquinone (30 mg/kg/day, i.p.)-treated diabetic mice (CQ-H). […]
(§4) Total RNA was separated from liver tissue of the mouse model using RNAisoPlus (Takara). Then, total RNA (2.5 μg) was reverse transcribed using a Primescript™ II 1st strand cDNA synthesis kit (Takara), and quantified using a Power SYBR Green PCR Master mix (Applied BioSystems). […]
(In general: In qPCR the cycle at which signal appears reflects the starting amount.)

The test system of data set [2] is IL1α, IL1β, IL6, p53, TNFα and RAGE. In words: qRT-PCR of inflammatory markers in liver of diabetic mouse model. The format is in vivo, C57BL/6 mice. The conditions noted are these: CQ-L, 10 mg/kg/day i.p., vs HFD mouse group. As to the method:
as §2, with “On the other hand, the remaining animals were fed a high-fat diet (HFD; 60% Kcal energy as fat) (study diet; #D12492; New Brunswick, NJ 08901 USA) for 2 weeks in order to induce insulin resistance, and the diet was continued until the study ended. Then, STZ (30 mg/kg, i.p.) was administered to the animals for 5 consecutive days from the 4th week to induce T2DM therein. On the other hand, the normal control animals were administered the same volume of citrate buffer instead of the STZ.” left out
as §4

Data set [3] concerns HFD+STZ-induced type 2 diabetic mice. In words: Fasting blood glucose in HFD+STZ-induced type 2 diabetic mice. The format is in vivo, C57BL/6 mice. The conditions noted are these: 3 weeks, vs HFD+STZ-treated mice. The protocol:
as §2

The next data set deals with FFA-treated HepG2 cells. In words: Oil Red O staining, lipid accumulation in FFA-treated HepG2 cells. The format is cell-based. The note with it: FFA-treated HepG2 cells (0.2 mM PA + 0.4 mM OA 24 hours), then 500 μM CQ 24 hours. As to the method: (§5) Free fatty acids (FFA) were prepared from a combination of palmitic acid (PA) and oleic acid (OA). In short, stocks of 100 mM palmitic acid and 100 mM oleic acid dissolved in sodium hydroxide were prepared. These stock solutions were conjugated with 10% BSA (1:9) solution. All stock solutions were stored at −20° C. The cells were seeded and attached to a 6-well plate, then the cells were treated with a mixture of 0.2 mM PA and 0.4 mM OA (1:2) for 24 hours or the same volume of 10% BSA solution for 24 hours. FFA was removed the next day and 500 μM of camphorquinone was added to the mixture and left for 24 hours. Thereafter, the plate was used for protein and oil red staining.
Oil Red O stock solution dissolved in isopropyl alcohol was prepared by magnetic stirring at room temperature for 2 hours, and the prepared solution was stored at room temperature. Then, Oil Red O working solution was prepared by mixing 1.5 parts of stock solution and 1 part of water (3:2), and incubated at 4° C. for 10 minutes. The solution was filtered through a 0.02 μm filter and used within 6 hours. […] The stained lipid droplets were dissolved in 2-propanol, and absorbance at 520 nm was measured to quantify lipid accumulation.

For a further data set, the system named is HepG2 cells. In words: MTT assay, cytotoxicity in HepG2 cells. The format is cell-based. The note with it: 24 hours. The protocol:
(§6) HepG2 hepatocytes were cultured in low glucose Dulbecco's modified Eagle medium (DMEM) (Gibco, Life Technologies, Grand Island, NY, USA) to which 10% FBS (Gibco, Life Technologies, USA), L-glutamine, and 1% penicillin/streptomycin solution were added. The cells were manipulated in a humidified incubator at 37° C. containing 5% CO2 under a sterile condition. The cells were sub-cultured as soon as they reached confluence. The cells were continuously monitored under a bright-field microscope (Nikon Eclipse TS100, Tokyo, Japan), and the medium was replaced every 3 days. For cell viability assays, the cells were seeded and treated with 0 μM-2000 μM camphorquinone (CQ) for 24 hours, then incubated in MTT solution (0.5 mg/ml) for 2 hours, and then formazan crystals were dissolved using dimethyl sulfoxide (DMSO). Cell viability was evaluated using a spectrophotometer (Multiskan FC, Thermo Fisher Scientific).
In general terms: Tetrazolium assays rely on reduction of a dye to a coloured formazan, in cell work by metabolically active cells.

In data set [4] the test system is lipid synthesis marker (ChREB) and lipid β-oxidation markers (CES1, CES2 and CPT1A). In words: qRT-PCR of lipid metabolism genes in FFA-treated cell model. The format is cell-based.
The subject of a further data set is SIRT1, AMPK and ACC. Briefly: Western blot of SIRT1, AMPK and ACC in HepG2 cells. The format is cell-based. As to the method: as §6, §1
The test system of data set [5] is HFD+STZ-induced type 2 diabetic mice. Briefly: Body weight and liver weight in HFD+STZ-induced type 2 diabetic mice. The format is in vivo, C57BL/6 mice. The note with it: CQ-L, 10 mg/kg/day i.p., 3 weeks. The protocol:
as §2

The subject of the next data set is AMPK, SIRT1 and ACC. In words: Western blot of AMPK, SIRT1 and ACC in FFA-treated HepG2 fatty hepatocyte model. The format is cell-based. The note with it: FFA-treated hepatocytes, 500 μM CQ 24 hours. As to the method:
as §5, §1

In the next data set the test system is LKB1 and ERK. Briefly: LKB1 and ERK signals in liver tissue of diabetic mouse model. The format is in vivo, C57BL/6 mice. The conditions noted are these: vs HFD mouse group. As to the method: as §1, §2
The test system of the next data set is LKB1, PGC1a and CRTC2. In words: Expression of LKB1, PGC1a and CRTC2 in liver of diabetic mouse model. The conditions noted are these: CQ treatment vs HFD+STZ-treated HFD mouse group. The format is in vivo, C57BL/6 mice. As to the method:
as §3, §4

Data set [6] relates to HFD+STZ-induced type 2 diabetic mice. Briefly: Glucose tolerance test in HFD+STZ-induced type 2 diabetic mice. The format is in vivo, C57BL/6 mice. The note with it: 1.5 g/kg d-glucose i.p., within 2 hours, vs HFD mouse group. As to the method:
as §2

Setting [7] is: by treatment concentration of CQ.

Take `CC12CCC(C(=O)C1=O)C2(C)C` (stereo not drawn) [camphorquinone]: in the data set with AMPK and SIRT1 (CQ-H, 30 mg/kg/day i.p.), the “AMPK in liver tissue” value is “activated” and the “SIRT1 in liver tissue” value is “activated”. Besides, in the data set with AMPK and SIRT1 (CQ-L, 10 mg/kg/day i.p.), the “AMPK in liver tissue” value is reported as “activated” and the “SIRT1 in liver tissue” value is “activated”. Moreover, in data set [1], the “expression of FASN (lipid production) in liver” value was “significantly decreased”, the “expression of SREBP1 (lipid production) in liver” value was “significantly decreased” and the “expression of the lipid β-oxidation gene CPTa in liver” value is “significantly increased”. Moreover, the “expressions of most inflammatory markers in the liver (IL1α, IL1β, IL6, p53, TNFα and RAGE)” value in data set [2] is “significantly decreased”. Further, the “fasting blood glucose levels” value in data set [3] (CQ-H, 30 mg/kg/day i.p.) is “significantly decreased”. Besides, the “fasting blood glucose levels” value in [3] (CQ-L, 10 mg/kg/day i.p.) was “significantly decreased”. The “lipid accumulation (Oil red O staining)” value with FFA-treated HepG2 cells was “reduced”. Moreover, the “cell viability (MTT assay)” value in the data set on HepG2 cells (at a high concentration (above 500 μM; 0-2000 μM tested)) was “decreased”. Moreover, in the data set on HepG2 cells (up to 500 μM), the “cytotoxicity (MTT assay)” value was “No cytotoxicity”. Besides, in data set [4], the “expression of lipid β-oxidation marker” value is recorded as “increased” and the “expressions of lipid synthesis markers” value is “decreased”. Also, the “SIRT1, AMPK and ACC expression” value with SIRT1, AMPK and ACC (CQ at 500 μM, increase was decreased at the high concentration) was “significant increase”. Moreover, in the data set on SIRT1, AMPK and ACC (setting [7]), the ACC expression result is listed as “significantly increased in a dose-dependent manner”, the AMPK expression result is listed as “significantly increased in a dose-dependent manner” and the SIRT1 expression result is reported as “significantly increased in a dose-dependent manner”. In addition, in data set [5], the body weight result is on record as “gradually decreased” and the liver weight entry is listed as “gradually decreased”. In the data set with AMPK, SIRT1 and ACC, the “activation of ACC” value is recorded as “restored”, the “activation of AMPK” value is on record as “restored” and the “activation of SIRT1” value is recorded as “restored”. In addition, in the data set with LKB1 and ERK (CQ-H, 30 mg/kg/day i.p.), the “ERK marker in liver tissue” value is “highly expressed” and the “LKB1 marker in liver tissue” value is on record as “highly expressed”. Besides, in the data set with LKB1 and ERK (CQ-L, 10 mg/kg/day i.p.), the “ERK marker in liver tissue” value is given as “highly expressed” and the “LKB1 marker in liver tissue” value is recorded as “highly expressed”. In the data set on LKB1, PGC1a and CRTC2, the “expression of CRTC2 in liver” value is listed as “increased”, the “expression of LKB1 in liver” value is “increased” and the “expression of PGC1a in liver” value was “increased”. Moreover, the glucose tolerance result in data set [6] (CQ-H, 30 mg/kg/day i.p.) is “improved”. For the same compound, the glucose tolerance entry in data set [6] (CQ-L, 10 mg/kg/day i.p.) is “improved”.
For `c1cc(-c2cnn3cc(-c4ccc(OCCN5CCCCC5)cc4)cnc23)ccn1` [Compound C, reference compound], in the data set with SIRT1, AMPK and ACC (CC treatment together with CQ), the “CQ-induced ACC protein expression” value is “significantly decreased”, the “CQ-induced AMPK protein expression” value is “significantly decreased” and the “CQ-induced SIRT1 protein expression” value was “significantly decreased”.
